IC50, malonyl-CoA level and antitumor activity data for eight molecules are collected here from US8119819B2 (Chugai Seiyaku Kabushiki Kaisha, priority 2001, dated 2012).

For the first assay, the target named is T1, malonyl-CoA decarboxylase prepared from rat heart (Rattus norvegicus, UniProt Q920F5).
T1 construct: malonyl-CoA decarboxylase prepared from rat heart; from tissue; host or cells: rat heart
T1 sequence (Q920F5 39-492): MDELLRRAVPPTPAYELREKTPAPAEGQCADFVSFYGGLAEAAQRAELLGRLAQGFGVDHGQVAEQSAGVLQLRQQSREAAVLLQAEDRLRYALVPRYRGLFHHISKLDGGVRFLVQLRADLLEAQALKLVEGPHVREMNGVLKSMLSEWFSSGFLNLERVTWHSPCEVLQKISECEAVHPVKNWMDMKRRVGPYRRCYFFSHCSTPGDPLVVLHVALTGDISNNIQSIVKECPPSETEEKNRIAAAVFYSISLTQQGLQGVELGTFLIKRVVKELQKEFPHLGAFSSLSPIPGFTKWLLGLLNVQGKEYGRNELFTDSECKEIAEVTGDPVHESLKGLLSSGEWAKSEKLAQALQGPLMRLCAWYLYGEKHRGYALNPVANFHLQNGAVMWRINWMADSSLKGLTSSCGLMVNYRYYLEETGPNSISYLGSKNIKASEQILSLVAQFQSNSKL
In words: In Vitro MCD inhibitory assay (spectrophotometric, 96 well). The class given is biochemical. The note with it: read-out: IC50 of the MCD inhibitors. As to the method: The following reagents are added into a 96 well titer plate: Tris-HCl buffer, 20 μL; DTE, 10 μL; 1-malate, 20 μL; NAD, 10 μL; NADH, 25 μL; water, 80 μL; malic dehydrogenase, 5 μL. The contents are mixed and incubated for 2 min followed by the addition of 5 μL of citrate synthase.
One may read the IC50 as the midpoint of a concentration-inhibition curve. For the molecule `CCCCN(C(=O)NCC)c1ncc(C(O)(C(F)(F)F)C(F)(F)F)s1` [Example 1-3-1, N-butyl-N′-ethyl-N-{5-[2,2,2-trifluoro-1-hydroxy-1-(trifluoromethyl)ethyl]-1,3-thiazol-2-yl}urea], the IC50 worked out at 213 nM. Same read-out and setting: as for `O=CN(Cc1ccncc1)c1ncc(C(O)(C(F)(F)F)C(F)(F)F)s1` [Example 1-4, pyridin-4-yl methyl {5-[2,2,2-trifluoro-1-hydroxy-1-(trifluoromethyl)ethyl]-1,3-thiazol-2-yl}formamide], the figure is 463 nM. In the case of `O=S(=O)(Nc1ncc(C(O)(C(F)(F)F)C(F)(F)F)s1)c1ccc(Cl)cc1` [Example 3, 4-chloro-N-{5-[2,2,2,-trifluoro-1-hydroxy-1-(trifluoromethyl)ethyl]-1,3-thiazol-2-yl}benzenesulfonamide], the IC50 is 124 nM. Same read-out and setting: as for `CN(CC#CC(O)(C(F)(F)F)C(F)(F)F)C(=O)CCc1ccccc1` [Example 7-1, N-methyl-3-phenyl-N-[5,5,5-trifluoro-4-hydroxy-4-(trifluoromethyl)pent-2-ynyl]propanamide], the figure is 739 nM. With `CC(C)N(C(=O)C1=NOC(C(O)(C(F)(F)F)C(F)(F)F)C1)C(C)C` (stereo not drawn) [Example 8-3-3], the IC50 worked out at 127 nM. For `OC(C1CC(N2CCCC2)=NO1)(C(F)(F)F)C(F)(F)F` (stereo not drawn) [Example 9-2, 1,1,1,3,3,3-hexafluoro-2-(3-pyrrolidin-1-4,5-dihydroisoxazol-5-yl)propan-2-ol], the IC50 was 3710 nM. Still for that read-out and setting: as for `Cc1ccc(C2=NOC(C(O)(C(F)(F)F)C(F)(F)F)C2)cc1` (stereo not drawn) [Example 11-1, 1,1,1,3,3,3-hexafluoro-2-[3-(4-methylphenyl)-4,5-dihydroisoxazol-5-yl]propan-2-ol], the figure is 388 nM.

The subject of a further assay is human breast cancer cells.
Test: not given
The note with it: breast carcinoma cells; cited from earlier work.
Take `CCCCCCCCCCCCCCOc1ccc(C(=O)O)o1` [TOFA, 5-(tetradecyloxy)-2-furoic acid]: the malonyl-CoA level was 60 % of the control.

The same assay, now with this note: human breast cancer cells and xenografts; cited from earlier work.
In the case of `CCCCCCCCCCCCCCOc1ccc(C(=O)O)o1` [TOFA, 5-(tetradecyloxy)-2-furoic acid], the antitumor activity entry is “does not show any antitumor activity”.
